According to patent publication US20080249042A1, “All-Trans-Retinol: All-Trans-13,14-Dihydroretinol Saturase and Methods of Its Use” (UNIVERSITY OF WASHINGTON, priority 2004, published 2008):

What was measured:
RALDH4 = target: T1, RALDH4 (Mus musculus, UniProt Q8BH00); assay: RALDH oxidation assay, transfected HEK-293S homogenate; type: biochemical; details: cell homogenate with NAD, NADP, ATP
T1 construct: The full-length cDNA of RALDH2 (MGC:76772, IMAGE: 30471325), RALDH4 (MGC:46977, IMAGE:4223059), and CYP26A1 (MGC:13860, IMAGE:4210893) mRNA was obtained; expressed in transfected cells; host or cells: GnTI-negative HEK-293S, transient; cell homogenate
T1 sequence (Q8BH00 1-487): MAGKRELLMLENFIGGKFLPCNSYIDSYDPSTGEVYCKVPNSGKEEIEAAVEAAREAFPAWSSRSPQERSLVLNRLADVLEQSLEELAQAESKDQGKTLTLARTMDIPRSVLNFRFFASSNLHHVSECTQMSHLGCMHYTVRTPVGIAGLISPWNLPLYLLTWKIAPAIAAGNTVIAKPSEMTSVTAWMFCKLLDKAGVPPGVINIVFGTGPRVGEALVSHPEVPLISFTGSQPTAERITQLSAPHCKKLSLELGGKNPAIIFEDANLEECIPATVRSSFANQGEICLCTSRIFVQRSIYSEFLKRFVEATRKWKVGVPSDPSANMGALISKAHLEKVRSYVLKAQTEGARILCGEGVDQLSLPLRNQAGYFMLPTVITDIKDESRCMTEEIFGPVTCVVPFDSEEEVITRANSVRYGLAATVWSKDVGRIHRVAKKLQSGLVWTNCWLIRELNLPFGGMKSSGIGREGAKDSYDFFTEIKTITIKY
Procedure: (§1) RALDH Oxidation Assay. N-Acetylglucosaminyltransferase I-negative HEK-293S cells, obtained from Dr. G. Khorana (Massachusetts Institute of Technology, Boston) were cultured in Dulbecco's modified Eagle's medium, 10% fetal calf serum and maintained at 37° C., 5% CO2, and 100% humidity. Reeves, et al. Proc. Natl. Acad. Sci. U.S.A. 99:13419-13424, 2002. For RALDH enzyme assays, cells were transiently transfected with RALDH1, -2, -3, or -4 expression constructs using Lipofectamine 2000 (Invitrogen) according to the manufacturer's protocol. After 48 h post-transfection, the cells were collected by scraping and were centrifuged. The cell pellet was washed in 137 mM NaCl, 2.7 mM KCl, and 10 mM phosphate (pH 7.4), resuspended in 50 mM Tris (pH 8.0) containing 250 mM sucrose, and homogenized with the aid of a Dounce homogenizer. Cofactors were added to a final concentration of 5 mM NAD, 5 mM NADP, and 1 mM ATP. An aliquot of the cell lysate was boiled for 10 min at 95° C. to provide the control for the nonenzymatic reaction. Substrates in the form of all-trans-RAL or a mixture of isomers of DRAL were added to the cell lysates at a final concentration of 60 μM. The reactions were allowed to proceed for 2 h at 37° C. with shaking and were stopped by the addition of 2 volumes of CH3CN. […] After each run, the column was washed with mixture B (60% tert-butylmethyl ether, 40% methanol) for 10 min at 1.6 ml/min, followed by re-equilibration in phase A. The elution of RA and DRA isomers was monitored at 340 and 290 nm, respectively. The peaks were identified based on their spectra and coelution with standards. The cell lysate was examined for expression of RALDH1-4 by SDS-PAGE and immunoblotting of the V5 epitope-tagged recombinant protein using an anti-V5 epitope monoclonal antibody (Invitrogen).

RALDH1 = target: T2, RALDH1 (Mus musculus, UniProt P24549); assay: as above; type: biochemical; details: cell homogenate with NAD, NADP, ATP
T2 construct: expressed in transfected cells; host or cells: GnTI-negative HEK-293S, transient; cell homogenate
T2 sequence (P24549 1-501): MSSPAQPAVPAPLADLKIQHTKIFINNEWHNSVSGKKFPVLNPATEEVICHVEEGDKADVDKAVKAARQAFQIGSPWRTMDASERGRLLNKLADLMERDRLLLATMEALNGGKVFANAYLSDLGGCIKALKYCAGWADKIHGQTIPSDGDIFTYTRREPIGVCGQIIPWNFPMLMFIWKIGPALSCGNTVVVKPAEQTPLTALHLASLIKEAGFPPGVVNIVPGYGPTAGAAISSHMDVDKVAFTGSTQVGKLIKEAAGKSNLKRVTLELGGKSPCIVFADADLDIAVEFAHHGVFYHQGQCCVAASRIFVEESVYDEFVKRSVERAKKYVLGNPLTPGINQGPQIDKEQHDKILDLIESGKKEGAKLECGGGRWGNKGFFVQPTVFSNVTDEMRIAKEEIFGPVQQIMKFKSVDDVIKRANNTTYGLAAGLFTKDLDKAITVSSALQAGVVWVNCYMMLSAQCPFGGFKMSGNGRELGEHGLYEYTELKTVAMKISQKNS
Procedure: as §1

RALDH2 = target: T3, RALDH2 (Mus musculus, UniProt Q62148); assay: as above; type: biochemical; details: cell homogenate with NAD, NADP, ATP
T3 construct: The full-length cDNA of RALDH2 (MGC:76772, IMAGE: 30471325), RALDH4 (MGC:46977, IMAGE:4223059), and CYP26A1 (MGC:13860, IMAGE:4210893) mRNA was obtained; expressed in transfected cells; host or cells: GnTI-negative HEK-293S, transient; cell homogenate
T3 sequence (Q62148 1-518): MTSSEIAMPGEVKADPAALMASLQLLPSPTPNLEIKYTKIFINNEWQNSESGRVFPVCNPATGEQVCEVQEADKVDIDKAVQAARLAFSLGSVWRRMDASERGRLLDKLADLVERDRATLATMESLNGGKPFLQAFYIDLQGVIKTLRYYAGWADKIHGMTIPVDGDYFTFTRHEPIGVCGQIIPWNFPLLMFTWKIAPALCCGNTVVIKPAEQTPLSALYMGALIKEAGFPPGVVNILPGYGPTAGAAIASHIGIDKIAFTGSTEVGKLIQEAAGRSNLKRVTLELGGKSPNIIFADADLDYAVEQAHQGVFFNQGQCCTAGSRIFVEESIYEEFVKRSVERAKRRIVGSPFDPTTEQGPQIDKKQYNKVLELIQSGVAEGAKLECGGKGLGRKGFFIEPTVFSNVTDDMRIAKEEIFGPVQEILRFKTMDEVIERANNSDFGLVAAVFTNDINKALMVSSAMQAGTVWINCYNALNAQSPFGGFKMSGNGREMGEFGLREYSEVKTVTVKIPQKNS
Procedure: as §1

RALDH3 = target: T4, RALDH3 (Mus musculus, UniProt Q9JHW9); assay: as above; type: biochemical; details: cell homogenate with NAD, NADP, ATP
T4 construct: expressed in transfected cells; host or cells: GnTI-negative HEK-293S, transient; cell homogenate
T4 sequence (Q9JHW9 1-512): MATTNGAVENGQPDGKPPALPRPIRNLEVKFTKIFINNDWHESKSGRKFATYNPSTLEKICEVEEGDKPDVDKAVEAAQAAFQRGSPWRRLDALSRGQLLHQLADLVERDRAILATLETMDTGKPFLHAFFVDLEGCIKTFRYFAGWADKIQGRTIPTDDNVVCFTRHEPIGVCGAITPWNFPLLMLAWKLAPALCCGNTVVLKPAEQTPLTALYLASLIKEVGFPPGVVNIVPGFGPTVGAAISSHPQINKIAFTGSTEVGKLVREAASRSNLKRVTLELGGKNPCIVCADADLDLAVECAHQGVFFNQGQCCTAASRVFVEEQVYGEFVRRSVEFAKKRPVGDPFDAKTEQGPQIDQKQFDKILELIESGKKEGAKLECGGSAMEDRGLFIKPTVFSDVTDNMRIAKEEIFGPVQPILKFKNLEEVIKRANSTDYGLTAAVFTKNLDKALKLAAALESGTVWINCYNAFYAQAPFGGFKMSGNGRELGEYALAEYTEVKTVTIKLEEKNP
Procedure: as §1

mouse RALDH1 = target: T5, mouse RALDH1 (Mus musculus, UniProt P24549); details: cited from earlier work
T5 sequence (P24549 1-501): T2 sequence (P24549 1-501)

mouse RALDH2 = target: T6, mouse RALDH2 (Mus musculus, UniProt Q62148); details: cited from earlier work
T6 sequence (Q62148 1-518): T3 sequence (Q62148 1-518)

SMILES | Oxidation to the acid by RALDH4 (RALDH4) | Oxidation to the acid by RALDH1 (RALDH1) | Oxidation to the acid by RALDH2 (RALDH2) | Oxidation to the acid by RALDH3 (RALDH3) | Km (mouse RALDH1) | Km (mouse RALDH2)
CC(C=CC1=C(C)CCCC1(C)C)=CC=CC(C)CC=O (stereo not drawn) [all-trans-DRAL, 13,14-dihydroretinaldehyde] | less efficient | less efficient | efficiently converted | efficiently converted |  | 
CC1=C(/C=C/C(C)=C/C=C/C(C)=C/C=O)C(C)(C)CCC1 [all-trans-RAL, all-trans-retinal, reference compound] | less efficient | less efficient | efficiently converted | efficiently converted | 11.6 µM | 0.66 µM
